This note sets out measurements from patent publication US20190159452A1, “ACTIVE COMPOUND COMBINATIONS COMPRISING A (THIO)CARBOXAMIDE DERIVATIVE AND A FUNGICIDAL COMPOUND” (BAYER CROPSCIENCE AKTIENGESELLSCHAFT, priority 2015, published 2019).

A short description of data set [1]: log P by HPLC on a reversed-phase column (C18), EEC Directive 79/831 Annex V.A8. Particulars: for chromatographic logP: reversed-phase C18 HPLC column, printed after the preparation step, method not restated. In kind it is physicochemical. The method, then:
In table 1, the log P values were determined in accordance with EEC Directive 79/831 Annex V.A8 by HPLC (High Performance Liquid Chromatography) on a reversed-phase column (C18), using the method described below:
Temperature: 40° C.; Mobile phases: 0.1% aqueous formic acid and acetonitrile; linear gradient from 10% acetonitrile to 90% acetonitrile.
Calibration was carried out using unbranched alkan-2-ones (comprising 3 to 16 carbon atoms) with known log P values (determination of the log P values by the retention times using linear interpolation between two successive alkanones). lambda-max-values were determined using UV-spectra from 200 nm to 400 nm and the peak values of the chromatographic signals.

A further data set concerns Puccinia triticina. As to the kind of experiment: in vivo preventive Puccinia triticina test (wheat). Particulars: 8 days after inoculation. An excerpt:
(§1) A synergistic effect of fungicides is always present when the fungicidal activity of the active compound combinations exceeds the total of the activities of the active compounds when applied individually. The expected activity for a given combination of two active compounds can be calculated as follows (cf. Colby, S. R., “Calculating Synergistic and Antagonistic Responses of Herbicide Combinations”, Weeds 1967, 15, 20-22): • If • X is the efficacy when active compound A is applied at an application rate of m ppm (or g/ha), • Y is the efficacy when active compound B is applied at an application rate of n ppm (or g/ha), • E is the efficacy when the active compounds A and B are applied at application rates of m and n ppm (or g/ha), respectively, and • then
(§2) The degree of efficacy, expressed in % is denoted. 0% means an efficacy which corresponds to that of the control while an efficacy of 100% means that no disease is observed.
(§3) Solvent: 49 parts by weight of N,N-dimethylacetamide
(§4) Emulsifier: 1 part by weight of alkylaryl polyglycol ether
(§5) To produce a suitable preparation of active compound, 1 part by weight of active compound or active compound combination is mixed with the stated amounts of solvent and emulsifier, and the concentrate is diluted with water to the desired concentration.
(§6) To test for preventive activity, young plants are sprayed with the preparation of active compound or active compound combination at the stated rate of application.
After the spray coating has been dried, the plants are sprayed with a spore suspension of Puccinia triticina. The plants remain for 48 hours in an incubation cabinet at approximately 20° C. and a relative atmospheric humidity of approximately 100%.
The plants are placed in the greenhouse at a temperature of approximately 20° C. and a relative atmospheric humidity of approximately 80%.
(§7) The test is evaluated 8 days after the inoculation. 0% means an efficacy which corresponds to that of the untreated control, while an efficacy of 100% means that no disease is observed.

For data set [2], the system named is Blumeria graminis f.sp. hordei. As to the kind of experiment: in vivo preventive Blumeria test (barley). Particulars: 7 days after inoculation.
Text: as §1, §2, §3, §4, §5
To test for preventive activity, young plants are sprayed with the preparation of active compound or active compound combination at the stated rate of application. After the spray coating has been dried, the plants are dusted with spores of Blumeria graminis f.sp. hordei.
The plants are placed in the greenhouse at a temperature of approximately 18° C. and a relative atmospheric humidity of approximately 80% to promote the development of mildew pustules.
The test is evaluated 7 days after the inoculation. 0% means an efficacy which corresponds to that of the untreated control, while an efficacy of 100% means that no disease is observed.

The next data set deals with Pyrenophora teres. Description: in vivo preventive Pyrenophora teres test (barley). Particulars: 8 days after inoculation.
Text: as §1, §2, §3, §4, §5, §6
After the spray coating has been dried, the plants are sprayed with a spore suspension of Pyrenophora teres. The plants remain for 48 hours in an incubation cabinet at approximately 20° C. and a relative atmospheric humidity of approximately 100%. The plants are placed in the greenhouse at a temperature of approximately 20° C. and a relative atmospheric humidity of approximately 80%.
as §7

Another data set relates to Leptosphaeria nodorum. As to the kind of experiment: in vitro-test Leptosphaeria nodorum (microtiter plate, growth by extinction at 620 nm). The class given is cell-based. To be noted: 2.5 ppm a.i., 3-5 days incubation. An excerpt: A synergistic effect of fungicides is always present when the fungicidal activity of the active compound combinations exceeds the total of the activities of the active compounds when applied individually. The expected activity for a given combination of two active compounds can be calculated as follows (cf. Colby, S. R., “Calculating Synergistic and Antagonistic Responses of Herbicide Combinations”, Weeds 1967, 15, 20-22): • If • X is the efficacy when active compound A is applied at an application rate of m ppm (or g/ha), • Y is the efficacy when active compound B is applied at an application rate of n ppm (or g/ha), • E is the efficacy when the active compounds A and B are applied at application rates of m and n ppm (or g/ha), respectively, and • then […]
The resulting concentrations of the test compounds or compound combinations in the microtiter wells are such as 50, 10, 2 and 0.4 ppm. […] With the aid of a photometer the extinction in all wells is measured at the wavelength of 620 nm. […]
At the end of the incubation time the growth of the test organisms is measured again photometrically at the wavelength of 620 nm. […] 0% efficacy means, the difference between the two extinction values is equal or even higher than of the untreated control, 100% efficacy means, no growth of the test organism is detected

In data set [3] the test system is Septoria tritici. Description: in vitro-test Septoria tritici (microtiter plate, growth by extinction at 620 nm). In kind it is cell-based.
Text: as §1
Wells of 96-well microtiter plates are filled with 10 μl of a solution of the test compounds or compound combinations in methanol together with the emulsifier alkylaryl polyglycol ether. Thereafter, the solvent is evaporated in a hood. At the next step, into each well 100 μl of liquid potato dextrose medium is given, that has been amended with an appropriate concentration of spores or mycelium suspension of the test fungus.
The resulting concentrations of the test compounds or compound combinations in the microtiter wells are such as 50, 10, 2 and 0.4 ppm. The resulting concentration of the emulsifier in all wells is constantly 300 ppm. With the aid of a photometer the extinction in all wells is measured at the wavelength of 620 nm.
The microtiter plates are then transferred for 3-5 days onto a shaker at 20° C. and 85% relative humidity.
At the end of the incubation time the growth of the test organisms is measured again photometrically at the wavelength of 620 nm. The difference between the two extinctions values (taken before and after incubation) is proportional to the growth of the test organism. 0% efficacy means, the difference between the two extinction values is equal or even higher than of the untreated control, 100% efficacy means, no growth of the test organism is detected

Data set [4] concerns Septoria tritici. Description: in vivo preventive Septoria tritici test (wheat). To be noted: 21 days after inoculation.
Text: as §1, §2, §3, §4
To produce a suitable preparation of active compound, 1 part by weight of active compound or active compound combination is mixed with the stated amounts of solvent and emulsifier, and the concentrate is diluted with water to the desired concentration. […]
The test is evaluated 21 days after the inoculation. […]

[5] abbreviates: 0.1 ppm a.i., 3-5 days incubation.
Where [6] appears, read: Table B1, 30 ppm a.i., wheat, preventive.

For “N-cyclopropyl-3-(difluoromethyl)-5-fluoro-N-(2-isopropylbenzyl)-1-methyl-1H-pyrazole-4-carbothio-amide [Compound A20]”, the logP (as a rule, a log measure of how a compound divides between an organic and an aqueous phase) in data set [1] was found to be 4.36.
With `CC(C)C(O)(Cn1cncn1)c1ccc(Oc2ccc(Cl)cc2)cc1C(F)(F)F` (centres unmarked) [(B2), 2-[4-(4-chlorophenoxy)-2-(trifluoromethyl)phenyl]-3-methyl-1-(1H-1,2,4-triazol-1-yl)butan-2-ol], the “Efficacy in % found” value with Puccinia triticina (Table B2, 30 ppm a.i.) is 0%; with Puccinia triticina (Table B2, 50 ppm a.i.), 10%; in the data set with Puccinia triticina (Table B2, 100 ppm a.i.) it was 30%; in the data set on Puccinia triticina (Table B2, 200 ppm a.i.) it was 40%; in data set [2] (30 ppm a.i.), 0%; in data set [2] (50 ppm a.i.) it was 30%. Also, the “Efficacy in % found” value in data set [2] (60 ppm a.i.) is on record as 60%; in data set [2] (100 ppm a.i.) it was 70%; with Pyrenophora teres (50 ppm a.i.), 22%; with Pyrenophora teres (60 ppm a.i.) it was 44%; in the data set with Pyrenophora teres (100 ppm a.i.) it was 56%; in the data set with Leptosphaeria nodorum, 1%. Besides, the “Efficacy in % found” value with Septoria tritici [3] (setting [5]) is given as 0%; in the data set on Septoria tritici [3] (0.3 ppm a.i.), 6%; in the data set on Septoria tritici [3] (0.6 ppm a.i.) it was 0%.
As for `Cc1ccc(S(=O)(=O)n2cc(F)c(=N)n(C)c2=O)cc1` [(B1), 5-fluoro-4-imino-3-methyl-1-[(4-methylphenyl)sulfonyl]-3,4-dihydropyrimidin-2(1H)-one], in data set [1], the chromatographic logP (as a rule, a lipophilicity value derived from retention on a column) was determined as 1.26. The “Efficacy in % found” value in the data set with Septoria tritici [4] (30 ppm a.i.) and with Puccinia triticina (setting [6]) was 0% throughout.
Turning to `Cc1ccc(S(=O)(=O)n2cc(F)c(N)nc2=O)cc1` [5-fluoro-4-imino-1-(p-tolylsulfonyl)pyrimidin-2-one], in data set [1], the chromatographic logP was 1.45.
On to `CC(C)c1ccc(Cl)cc1CN(C(=O)c1c(C(F)F)nn(C)c1F)C1CC1` [Compound A5, N-(5-chloro-2-isopropylbenzyl)-N-cyclopropyl-3-(difluoromethyl)-5-fluoro-1-methyl-1H-pyrazole-4-carboxamide], for which the “Efficacy in % found” value is 29% in the data set with Septoria tritici [4] (10 ppm a.i.); 75% with Puccinia triticina (setting [6]); 30% with Puccinia triticina (Table B2, 5 ppm a.i.); 40% in the data set with Puccinia triticina (Table B2, 10 ppm a.i.); 70% in the data set with Puccinia triticina (Table B2, 20 ppm a.i., wheat, preventive); 0% in data set [2] (5 ppm a.i.). In addition, the “Efficacy in % found” value in data set [2] (10 ppm a.i.) is reported as 20%; in data set [2] (20 ppm a.i., barley, preventive), 40%; in the data set on Pyrenophora teres (5 ppm a.i.), 44%; in the data set with Pyrenophora teres (10 ppm a.i., barley, preventive), 67%; in the data set on Leptosphaeria nodorum, 36%; in the data set with Septoria tritici [3] (setting [5]) it was 65%.
